From publication PMC2575047 (Molecular pharmacology, 2008) come the findings set out here.

The term Emax denotes the greatest response seen or fitted, relative to the assay's reference. The term EC50 denotes the concentration giving half of the maximal effect. The term AUC denotes concentration integrated over time. By Cmax is commonly meant the peak of the concentration-time curve. The term MRT denotes the average time that molecules of a dose stay in the body. By Tmax is commonly meant the time at which the peak concentration occurs. By clearance is commonly meant the volume of plasma or blood freed of the substance per unit of time. As usually defined, the half-life is the time needed for the level to fall by half in the phase considered. Read a high half-life as slow loss. Usually bioavailability stands for dose-corrected exposure relative to a reference, in per cent. Lower therefore signals poor availability.

The structures appear in SMILES notation. Like-named read-outs stand apart in the source and are kept apart here.

The nature of series [1]: Serum drug concentration in the lymphopenia studies. The following applies: mice; for serum drug concentration (± SD): W146 20 mg/kg + CYM-5442 2 mg/kg group, 5 h. Type of series: in vivo, C57BL6 mice.
The test system of series [2] is blood lymphocytes (WBC, B220+, CD4+, CD8+). In words: CYM-5442 mediated lymphopenia in mice. Type of series: in vivo, C57BL6 mice. The following applies: for B220^+ cells, percent relative to animals receiving both drug vehicles / CD4^+ cells, percent relative to animals receiving both drug vehicles / CD8^+ cells, percent relative to animals receiving both drug vehicles: W146 20 mg/kg i.p. 30 min before, CYM-5442 2 mg/kg.

The target of series [3] is T1, human S1P1-GFP (Homo sapiens, UniProt P21453). The series is described as follows: S1P1-GFP ubiquitination in HEK293 cells. The class given is cell-based.
T1 sequence (P21453 whole entry): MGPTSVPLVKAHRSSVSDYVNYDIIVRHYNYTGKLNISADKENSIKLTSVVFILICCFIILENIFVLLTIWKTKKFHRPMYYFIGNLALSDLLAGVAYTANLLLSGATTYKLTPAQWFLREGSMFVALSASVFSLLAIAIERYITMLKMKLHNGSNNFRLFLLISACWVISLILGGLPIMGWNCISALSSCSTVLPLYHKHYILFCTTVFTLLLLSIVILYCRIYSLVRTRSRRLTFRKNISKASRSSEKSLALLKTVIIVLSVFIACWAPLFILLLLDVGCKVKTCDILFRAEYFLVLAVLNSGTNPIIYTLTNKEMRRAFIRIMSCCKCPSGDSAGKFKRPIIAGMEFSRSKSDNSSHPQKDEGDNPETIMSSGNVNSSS
The target in series [4] is T1, human S1P1-GFP. In words: S1P1-GFP phosphorylation, P^32-orthophosphate labeled HEK293 cells. The class given is cell-based.
The target in the next series is human S1P5 (Homo sapiens, UniProt Q9H228). The series is described as follows: S1P5 agonist format, TANGO S1P5-bla U2OS cells. The class given is cell-based.
human S1P5, sequence (Q9H228 whole entry): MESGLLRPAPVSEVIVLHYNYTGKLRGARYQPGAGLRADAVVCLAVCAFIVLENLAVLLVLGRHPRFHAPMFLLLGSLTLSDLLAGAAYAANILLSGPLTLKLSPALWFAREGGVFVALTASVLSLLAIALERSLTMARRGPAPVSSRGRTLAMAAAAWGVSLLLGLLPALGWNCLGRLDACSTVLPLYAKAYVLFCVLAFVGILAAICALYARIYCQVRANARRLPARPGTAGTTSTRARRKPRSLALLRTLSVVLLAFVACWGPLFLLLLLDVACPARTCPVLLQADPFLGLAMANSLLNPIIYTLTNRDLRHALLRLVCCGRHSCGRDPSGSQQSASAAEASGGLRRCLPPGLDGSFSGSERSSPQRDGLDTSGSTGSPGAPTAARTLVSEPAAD
For series [5], the target named is human wild-type S1P1 (WT) (Homo sapiens, UniProt P21453). Type of series: cell-based.
human wild-type S1P1 (WT), sequence (P21453 whole entry): as the sequence (P21453 whole entry) above
Another series has as its target S1P1 R^120A mutant (Homo sapiens, UniProt P21453, R120A). Type of series: cell-based. The settings on record: for Emax: CHO-K1; for EC50: without W146.
A short description of a further series: Water solubility. The class given is physicochemical.
The target in a further series is S1P1 E^121A mutant (Homo sapiens, UniProt P21453, E121A). Type of series: cell-based. The following applies: for EC50: without W146.
S1P1 E^121A mutant, sequence (P21453 whole entry E121A): as the sequence (P21453 whole entry) above, with E121A counted along it
Series [6] is described as follows: Brain exposure in C57Bl6 mice. Type of series: in vivo. The settings on record: C57Bl6, mouse, ip, 10 mg/kg.
Series [7] can be described thus: Pharmacokinetics in Sprague Dawley rats. Type of series: in vivo. The following applies: rat.
Another series concerns the target human S1P1 (Homo sapiens, UniProt P21453). The class given is cell-based.
Series [8] has as its target T1, human S1P1-GFP. The series is described as follows: S1P1-GFP internalization in HEK293 cells. The class given is cell-based.
Setting [9] is: EC50, activation of p42/p44 MAPK phosphorylation, WT, without W146.
Setting [10] is: Sprague Dawley, plasma, iv, 1 mg/kg.
The mark [11] stands for this setting: Sprague Dawley, plasma, po, 2 mg/kg.

S1P1 R^120A mutant, sequence (P21453 whole entry R120A): as the sequence (P21453 whole entry) above, with R120A counted along it
human S1P1, sequence (P21453 whole entry): as the sequence (P21453 whole entry) above

`CCOc1ccc(-c2nc(-c3cccc4c3CCC4NCCO)no2)cc1OCC` (centres unmarked) [CYM-5442, 2-(4-(5-(3,4-diethoxyphenyl)-1,2,4-oxadiazol-3-yl)-2,3-dihydro-1H-inden-1-ylamino) ethanol]: in series [1], the “serum drug concentration (± SD)” value was 190 ± 40 nM. Besides, in [1] (i.p.), the “serum CYM-5442 concentration required for induction and maintenance of lymphopenia” value is listed as around 50 nM. Moreover, in series [2] (abstract), the “decrease of B-lymphocytes, of vehicle” value worked out at 65%. In addition, the “decrease of T-lymphocytes, of vehicle” value in series [2] (abstract) was 85%. Further, the “reduction of CD4^+, CD8^+ and B220^+ cell counts, of vehicle” value in series [2] (mice, 2 mg/kg, 5 h) is on record as “approximately 50%”. Further, the “decrease of B220^+ B-cells compared to vehicle” value in series [2] (mice, 10 mg/kg i.p., 5 h) is recorded as 63%. Moreover, the “decrease of CD4^+ T-cell counts, of vehicle” value in series [2] (mice, 10 mg/kg i.p., 5 h) was 83%. For the same compound, in series [2] (mice, 10 mg/kg i.p., 5 h), the “decrease of CD8^+ T-cell counts, of vehicle” value came to 84%. Besides, the “decrease of WBC counts vs. vehicle” value in series [2] (mice, 10 mg/kg i.p., 5 h) was determined as 64%. Further, the “% CD4^+” value in series [2] (mice, 10 mg/kg i.p., 5 h, vehicle 11.5±0.2) is 1.9±0.2 %. The “WBC (K/mm^3)” value in series [2] (mice, 10 mg/kg i.p., 5 h, vehicle 11.9±0.2) is on record as 4.3±0.4 K/mm^3. In addition, the “% CD8^+” value in [2] (mice, 10 mg/kg i.p., 5 h, vehicle 11.9±0.3) came to 1.9±0.4 %. In series [2] (mice, 10 mg/kg i.p., 5 h, vehicle 40.5±0.6), the “% B220^+” value is listed as 14.7±0.5 %. For the same compound, the “B220^+ cells, percent relative to animals receiving both drug vehicles” value in [2] (mice, 5 h) is recorded as 46.0±18.1 %. Also, the “CD4^+ cells, percent relative to animals receiving both drug vehicles” value in series [2] (mice, 5 h) was determined as 53.5 ± 6.5 %. Also, the “CD8^+ cells, percent relative to animals receiving both drug vehicles” value in series [2] (mice, 5 h) is 47.4±7.5 %. Further, the S1P1-GFP receptor ubiquitination result at human S1P1-GFP [3] (1 h incubation) is given as “stimulated receptor ubiquitination (UB-S1P1-GFP) to AFD-R levels”. Moreover, on human S1P1-GFP [4] (500 nM), the S1P1 phosphorylation result is recorded as “stimulated S1P1 phosphorylation in a time-dependent manner”. The “selectivity for S1P1 over S1P5” value on human S1P5 is on record as 10,000 fold. Besides, the Emax at human S1P5 (U2OS, read-out: Agonist format (Emax)) worked out at 20%; in series [5] (CHO-K1), 70%; at S1P1 R^120A mutant, 100%; at S1P1 E^121A mutant (CHO-K1), 100%; at human S1P1 (read-out: Agonist format (Emax)), 100%. Also, the EC50 in series [5] (setting [9]) is 46 nM; at S1P1 R^120A mutant (EC50, p42/p44 MAPK activity, R^120A), 67 nM; at S1P1 R^120A mutant (LogEC50, R^120A, log EC50 printed negative), 63.1 nM; on S1P1 E^121A mutant (LogEC50, E^121A, log EC50 printed negative), 126 nM; on S1P1 E^121A mutant (mean EC50, activation of p42/p44 MAPK, E^121A), 134 nM; at human S1P1, 1.35 nM. Moreover, the “rightward shift in EC50 by 10 μM W146” value on S1P1 R^120A mutant (R^120A) is listed as 3 fold. Moreover, the water solubility entry in the series “Water solubility” is “moderately water-soluble”. The “rightward shift in potency by W146 preincubation” value at S1P1 E^121A mutant (E^121A) is 10 fold. Also, the figures for the concentration at 2 h in series [6] (brain) and in series [6] (plasma) were 13700 ± 2900 nM and 1080 ± 300 nM, respectively. Moreover, the AUC was found to be 0.57 ± 0.1 µM·h in series [7] (setting [10]) and 0.23 ± 0.053 µM·h in series [7] (setting [11]). In addition, the Cmax was found to be 220 ± 18 nM in [7] (setting [10]) and 36 ± 7.2 nM in [7] (setting [11]). The MRT in series [7] (setting [10]) came to 3.54 ± 0.38 h; in [7] (setting [11]), 6.35 ± 2.1 h. Besides, the Tmax in series [7] (setting [10]) was 0.083 h; in series [7] (setting [11]), 1.17 ± 0.76 h. The same compound showed a clearance in series [7] (setting [10]) of 72.9 ± 11.7 mL/min/kg. Besides, the half-life in [7] (Sprague Dawley, plasma, iv, 1 mg/kg, half-life (t1/2)) was 0.833 h; in series [7] (Sprague Dawley, plasma, iv, 1 mg/kg, t1/2, rat, 1 mg/kg i.v.), 3.05 ± 0.37 h; in series [7] (Sprague Dawley, plasma, po, 2 mg/kg, half-life (t1/2), P.O.), 3 h; in series [7] (Sprague Dawley, plasma, po, 2 mg/kg, t1/2, rat, 2 mg/kg PO), 4 ± 1.45 h. In [7] (Sprague Dawley, plasma, oral, 2 mg/kg), this compound registered a bioavailability of 20.5 ± 4.67%. Also, the “AUC (% extrap,ob)” value stood at 11.35 ± 14.20% in [7] (1 mg/kg i.v.) and 27.80 ± 14.20% in series [7] (2 mg/kg PO). Also, in [7] (2 mg/kg PO), the “Cl” value stood at 360.1 ± 73.3 mL/min/kg. Moreover, the “agonist efficacy compared to SEW2871” value at human S1P1 (CRE reporter, agonist format) is listed as “full agonist compared to SEW2871”. Besides, the “more potent than SEW2871 in vitro” value on human S1P1 (depending on which agonist format was used) is given as 10-50 fold. Besides, on human S1P1-GFP [8] (500 nM), the S1P1-GFP internalization entry is reported as “stimulated the internalization of S1P1-GFP receptor”.

For the compound `CCCCCCCCCCCCC/C=C/[C@@H](O)[C@@H](N)COP(=O)(O)O` [S1P, Sphingosine-1 phosphate], the EC50 in [5] (EC50, activation of p42/p44 MAPK phosphorylation, WT, 10 μM W146 prior to agonist) was 140 nM; in [5] (setting [9]), 2.3 nM; in series [5] (LogEC50, WT, without W146, log EC50 printed negative, 5 min stimulation) it was 2.51 nM. In series [5] (WT, agonist with W146 vs agonist alone), the “rightward shift in potency by 10 μM W146” value stood at 60 fold. The compound further had a maximal response (Emax) on S1P1 R^120A mutant of 25%. At S1P1 R^120A mutant (R^120A), the “p42/p44 MAPK activity in the mutant” value is reported as “near loss of p42/p44 MAPK activity”. The “p42/p44 MAPK activation in the mutant” value at S1P1 E^121A mutant (E^121A) is recorded as “did not lead to significant p42/p44 MAPK activation”.

On to `N#CC(=C(/N)Sc1ccccc1N)/C(C#N)=C(/N)Sc1ccccc1N` [U0126], for which the “block of S1P and CYM-5442 stimulated P42/P44 MAPK phosphorylation” value in series [5] (10 μM pre-incubation) was “completely blocked”.

Turning to `CCCCCCc1cccc(NC(=O)[C@H](N)CCP(=O)(O)O)c1` [W146, (R)-3-Amino-(3-hexylphenylamino)-4-oxobutylphosphonic acid, reference compound], the “serum drug concentration (± SD)” value in series [1] turned out to be 1760 ± 310 nM. Further, the “reversal of CYM-5442 effects on B-220^+, CD4^+ and CD8^+ cell counts” value in series [2] (W146 20 mg/kg 30 min before CYM-5442 2 mg/kg) is reported as “partially recover”. Moreover, in series [2] (mice, 5 h), the “B220^+ cells, percent relative to animals receiving both drug vehicles” value is recorded as 114.7±5.9%; the “CD4^+ cells, percent relative to animals receiving both drug vehicles” value is recorded as 108.1 ±17.4%; the “CD8^+ cells, percent relative to animals receiving both drug vehicles” value turned out to be 112.2±19.6%. In addition, the “effect on CYM-5442-stimulated S1P1 ubiquitination” value at human S1P1-GFP [3] (pre-incubation 30 min) is given as “nearly abolish”. In addition, the “effect of antagonist alone on S1P1 phosphorylation” value at human S1P1-GFP [4] (10 μM) is reported as “no effect”. In addition, at human S1P1-GFP [4] (10 μM, 30 min pre-incubation), the “effect on CYM-5442-mediated S1P1 phosphorylation” value is “completely abolished”. Moreover, in series [5] (WT cells, 10 μM W146 preincubation), the “inhibition of CYM-5442-mediated p42/p44 MAPK phosphorylation” value is “complete inhibition”. Moreover, on human S1P1-GFP [8], the “effect of antagonist alone on internalization” value is recorded as “did not have an effect on internalization”. Further, the “effect on internalization of S1P1-GFP by CYM-5442” value at human S1P1-GFP [8] (10 μM preincubation) is “completely blocked”.
